{"source": "patent US8900444B2", "about": "“Switchable hydrophilicity solvents and methods of use thereof” (Queen's University at Kingston, priority 2009, dated 2014)", "type_in_all_cases": "physicochemical", "key": {"[1]": {"assay": "Miscibility of amines with water in the absence of CO2 (Example 5A)", "settings": "1 mL amine + 1 mL H2O, room temperature, visual", "protocol": "1 mL of an appropriate amine was combined with 1 mL of H2O in a 4 mL vial, with the 1 and 2 mL volume lines marked. The vial was manually shaken and left to settle at room temperature. After the mixture settled, the number of phases was observed visually. This procedure was performed for all of the screened amines."}, "[2]": {"assay": "Miscibility of amines with water in the presence of CO2 (Example 5B)", "settings": "CO2 bubbled through amine/water mixture for at least one hour", "protocol": "All of the amines that formed a biphasic mixture in Example 5A were subjected to the following test. Carbon dioxide was bubbled through the amine/water biphasic mixture, via a syringe needle, for at least one hour. Care was taken to regulate the rate of the CO2 bubbling, so as not to cause evaporation of the amine. The liquid-liquid interface was observed over the course of CO2 bubbling, and a photo was taken after 60 minutes."}, "[3]": {"assay": "Conversion of amine switchable hydrophilicity solvents back to hydrophobic form by heating (Example 5C)", "settings": "for loss of amine during heating (excessive volatility): 80 °C, approximately 60 minutes", "protocol": "All of the amines identified as switchable hydrophilicity solvents in Example 5B (except N,N-dimethylbutylamine) were subjected to the following test. The vial containing the single-phase amine/water/CO2 mixture prepared in example 5B was heated in an oil bath at 80° C. for approximately 60 minutes. The mixture was magnetically stirred, and phase separation was observed throughout the course of heating. In the case of the N1,N1,N4,N4-tetraethylbutane-1,4-diamine/water/CO2 mixture, 5 hours of heating was required to switch it back to its hydrophobic form."}, "[4]": {"assay": "Visual and NMR study of amine switchable hydrophilicity solvents (Example 6)", "protocol": "The following amines were evaluated in this series of experiments: N-ethylpiperidine, N,N-dimethylcyclohexylamine, and N,N-dimethylhexylamine. The sequence of experiments is described for one amine but was performed for all three. The visual observations are described in Table 3. 1,4-Dioxane was used as an internal standard for NMR spectroscopy.\nAmine (1 mL) was combined with D2O (1 mL) in a 10 mL graduated cylinder, which was then capped with a rubber septum. The cylinder was manually shaken and left to settle at room temperature, after which the mixture appeared as two transparent liquid phases. For each amine, this procedure was simultaneously conducted in 3 identical cylinders. From the aqueous (bottom) layer of one of the three cylinders, three 250 μL samples were withdrawn, combined with equal volumes of D2O and dioxane internal standard, and analyzed by ^1H NMR spectroscopy. The spectra were consistent with the amine in the aqueous phase being in its neutral form. The graduated cylinder from which the samples were taken was discarded.\nFor each of two remaining graduated cylinders, carbon dioxide was bubbled through the amine/water biphasic mixture, via a syringe needle, for at least one hour. Care was taken to regulate the rate of the CO2 bubbling, so as not to cause significant evaporation of the amine. The mixture changed from a biphasic liquid mixture to a single homogeneous liquid phase. From one of the two graduated cylinders, a 300 μL sample of the homogenous liquid phase was withdrawn and mixed with an equal volume of D2O and a known quantity of dioxane internal standard. […] The graduated cylinder from which the sample was taken was discarded.\nThe remaining graduated cylinder, containing the single-phase amine/water/CO2 mixture prepared above, was heated in an oil bath at 80 deg. C for 1 hour. Phase separation was observed. Three 250 μL samples of the aqueous (bottom) layer were withdrawn, combined with equal volumes of D2O and a known quantity of dioxane internal standard, and analyzed by NMR spectroscopy."}, "[5]": {"assay": "CO2 bubbling time to phase merge with and without piperazine", "settings": "5 mL amine + 5 mL water, room temperature, CO2 100 mL/min", "protocol": "In some embodiments, addition of a small amount of piperazine further increases the rate of conversion of a switchable hydrophilicity solvent to its ionic form. […] In the presence of an absorption activator, specifically 10 wt % piperazine, the time of CO2 bubbling to phase merge was only 20 minutes. Although not experimentally shown, the inventors expect that piperazine would have a similar absorption activating effect for compounds of formula (1). A similar improvement in CO2 capture for aqueous solutions of tertiary amines was reported by Dubois (Chem. Eng. Tech. 32(5): 710 (2009))."}, "[6]": {"assay": "Separation of switchable solvent from soybean oil with CO2/carbonated water (Examples 2A, 2C)", "protocol": "A 4 mL vial was prepared containing 1.0 mL D2O, 0.5 mL BA and 0.5 mL soybean oil. The vial was shaken thoroughly and allowed to settle, showing a 1.0 mL upper layer (soybean oil and BA) and a 1.0 mL lower layer (D2O). ^1H NMR samples (50 μL) were withdrawn from each layer and mixed with methanol-d4 (0.5 mL) containing a dioxane internal standard (51.5 mM). Another sample was withdrawn from the upper layer for ^1H NMR analysis in CDCl3, because soybean oil is not miscible with methanol. The same volume was discarded from the bottom layer to maintain the initial ratio.\nCO2 was bubbled through the system for 1.5 h, at which time the top layer appeared to have halved in volume. Using the same system, ^1H NMR analysis was again conducted on both layers, the bottom layer in methanol-d4 and the top layer in CDCl3.\nA 1.0 mL portion of the bottom layer was withdrawn and transferred to a new 4.0 mL vial. A magnetic stirrer was added and the vial was stirred at 80° C. for 1 h. Samples were withdrawn from both layers for ^1H NMR analysis in methanol-d4 with reference to the dioxane internal standard.\nThe switching behavior of BA in the presence of soybean oil was studied qualitatively and by ^1H NMR spectroscopy as shown in FIG. 11. The top spectrum is that of soy oil. The middle spectrum is that of the upper (organic) phase after the mixing of the BA, soy oil and D2O. This upper phase comprises soy oil and BA. The bottom spectrum is that of the upper (organic) phase after the addition of the CO2 trigger and comprises predominantly soy oil and any residual solvent.\nThe most informative ^1H NMR spectra in this experiment were those showing the separation of the soy oil and BA. Based on the integration of the peak corresponding to BA at 3.17 ppm in these spectra, 96% of the amidine was removed from the upper soybean oil layer after switching to its hydrophilic BAB form. Other spectra (not shown), collected in methanol-d4 with a dioxane internal standard, confirmed the switching behavior presented in Example 1 above, showing 11% retention of BA in the aqueous phase after heating.\nIt was possible to remove a high percentage of N1,N1,N4,N4-tetraethylbutane-1,4-diamine from the soybean oil be mixing with carbonated water. The percentage removal was 98.65%. In contrast, 96% of BA was removed from the soybean oil."}, "[7]": {"settings": "listed as N,N-dimethyl-N-cyclohexylamine"}}, "data": [{"smiles": "CCCN(C)CCC", "note": "[methyldipropylamine]", "values": [{"measurement": "miscibility with water under air (absence of CO2)", "setting": "[1]", "result": "biphasic"}, {"measurement": "miscibility with water under air (absence of CO2)", "setting": "[1]; listed as dipropylmethylamine", "result": "immiscible with water"}, {"measurement": "miscibility with water after CO2 treatment", "setting": "[2]", "result": "single-phase"}, {"measurement": "miscibility with water after CO2 treatment", "setting": "[2]; listed as dipropylmethylamine", "result": "became water-miscible"}, {"measurement": "loss of amine during heating (excessive volatility)", "setting": "[3]", "result": "loss of amine"}]}, {"smiles": "CN(C)C1CCCCC1", "note": "[N,N-dimethylcyclohexylamine]", "values": [{"measurement": "time of CO2 bubbling to form one homogeneous solution", "setting": "[4]; 1 mL amine + 1 mL D2O", "result": "took 45 min to form one"}, {"measurement": "number of layers formed without CO2", "setting": "[4]; 1 mL amine + 1 mL D2O, room temperature", "result": "formed 2 clear,"}, {"measurement": "time of heating to separate into 2 layers", "setting": "[4]; oil bath 80 deg. C", "result": "after 30 min, solution has"}, {"measurement": "volume of bottom (aqueous) layer after heating", "setting": "[4]; oil bath 80 deg. C", "result": "clear & colorless, with volume of 1 mL,"}, {"measurement": "volume of top layer after heating", "setting": "[4]; oil bath 80 deg. C", "result": "oily, with volume of 0.8 mL"}, {"measurement": "time of CO2 bubbling to phase merge", "setting": "[5]; 10 wt % piperazine", "result": 20, "unit": "min"}, {"measurement": "time of CO2 bubbling for phase merge", "setting": "[5]; absence of piperazine", "result": 35, "unit": "min"}, {"measurement": "miscibility with water under air (absence of CO2)", "setting": "[1]", "result": "biphasic"}, {"measurement": "miscibility with water under air (absence of CO2)", "setting": "[1]; [7]", "result": "immiscible with water"}, {"measurement": "miscibility with water after CO2 treatment", "setting": "[2]", "result": "single-phase"}, {"measurement": "miscibility with water after CO2 treatment", "setting": "[2]; [7]", "result": "became water-miscible"}]}, {"smiles": "CCCCN(CC)CC", "note": "[N,N-diethylbutylamine]", "values": [{"measurement": "miscibility with water under air (absence of CO2)", "setting": "[1]", "result": "biphasic"}, {"measurement": "miscibility with water under air (absence of CO2)", "setting": "[1]; listed as diethylbutylamine", "result": "immiscible with water"}, {"measurement": "miscibility with water after CO2 treatment", "setting": "[2]", "result": "single-phase"}, {"measurement": "miscibility with water after CO2 treatment", "setting": "[2]; listed as diethylbutylamine", "result": "became water-miscible"}, {"measurement": "loss of amine during heating (excessive volatility)", "setting": "[3]", "result": "loss of amine"}]}, {"smiles": "CCN(CC)CCCCN(CC)CC", "note": "[N1,N1,N4,N4-tetraethylbutane-1,4-diamine]", "values": [{"measurement": "solvent removed from soybean oil after switching to hydrophilic form", "setting": "[6]; CO2 / carbonated water", "result": 98.65, "unit": "%"}, {"measurement": "miscibility with soybean oil", "setting": "[6]; neutral hydrophobic form", "result": "miscible with soybean oil"}, {"measurement": "miscibility with water under air (absence of CO2)", "setting": "[1]", "result": "biphasic"}, {"measurement": "miscibility with water under air (absence of CO2)", "setting": "[1]; listed as Et2NCH2CH2CH2CH2NEt2", "result": "immiscible"}, {"measurement": "miscibility with water after CO2 treatment", "setting": "[2]", "result": "single-phase"}, {"measurement": "miscibility with water after CO2 treatment", "setting": "[2]; listed as Et2NCH2CH2CH2CH2NEt2", "result": "miscible"}, {"measurement": "heating time required to switch back to hydrophobic form", "setting": "[3]; amine/water/CO2 mixture, oil bath 80 °C, stirred", "result": 5, "unit": "h"}]}, {"smiles": "CCN(CC)CC", "note": "[triethylamine]", "values": [{"measurement": "miscibility with water under air (absence of CO2)", "setting": "[1]", "result": "biphasic"}, {"measurement": "miscibility with water under air (absence of CO2)", "setting": "[1]; listed as N,N,N-triethylamine", "result": "immiscible with water"}, {"measurement": "miscibility with water after CO2 treatment", "setting": "[2]", "result": "single-phase"}, {"measurement": "miscibility with water after CO2 treatment", "setting": "[2]; listed as N,N,N-triethylamine", "result": "became water-miscible"}, {"measurement": "loss of amine during heating (excessive volatility)", "setting": "[3]", "result": "loss of amine"}]}]}
